Laboratory results: ChEMBL document CHEMBL1201862, “PubChem BioAssay data set” (2004)
Blank lines part the entries; values can stand above or below the molecule they belong to. The source made the active and inactive calls.

Assays:
[1] = CRF-BP/CRF-R2 complex antagonists, dose response, cell-based, uHTS hits, 384-well (AID 651639); format: functional, Homo sapiens; settings: read-out: IC50_Mean
[2] = target: T1, Corticotropin-releasing factor receptor 2/Corticotropin-releasing factor-binding protein (Homo sapiens, UniProt P24387+Q13324); test: Dose Response confirmation of uHTS hits for small molecule antagonists of the CRF-binding protein and CRF-R2 receptor complex.; format: functional; settings: read-out: IC50_Mean
T1 sequence (Q13324 whole entry): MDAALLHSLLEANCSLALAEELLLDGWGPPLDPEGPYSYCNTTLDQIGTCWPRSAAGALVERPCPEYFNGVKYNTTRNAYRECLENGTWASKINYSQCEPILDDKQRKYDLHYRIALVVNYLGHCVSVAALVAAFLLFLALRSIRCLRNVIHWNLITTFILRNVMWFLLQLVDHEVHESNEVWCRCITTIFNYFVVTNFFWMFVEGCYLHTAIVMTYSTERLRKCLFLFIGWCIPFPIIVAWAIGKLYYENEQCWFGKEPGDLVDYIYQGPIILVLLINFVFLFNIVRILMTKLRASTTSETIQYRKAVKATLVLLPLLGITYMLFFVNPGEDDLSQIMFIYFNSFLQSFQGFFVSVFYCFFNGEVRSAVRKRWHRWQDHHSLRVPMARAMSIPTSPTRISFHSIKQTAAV
T1 sequence (P24387 whole entry): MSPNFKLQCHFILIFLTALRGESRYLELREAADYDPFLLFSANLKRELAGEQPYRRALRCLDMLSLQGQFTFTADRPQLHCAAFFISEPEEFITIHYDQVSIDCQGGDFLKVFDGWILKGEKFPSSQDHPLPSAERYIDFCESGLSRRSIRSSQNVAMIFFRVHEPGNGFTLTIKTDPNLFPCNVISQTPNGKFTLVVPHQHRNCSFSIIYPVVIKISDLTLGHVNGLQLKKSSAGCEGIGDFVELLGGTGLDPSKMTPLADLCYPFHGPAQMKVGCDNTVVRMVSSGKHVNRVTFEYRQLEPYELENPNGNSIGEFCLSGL

[3] = target: T1, Corticotropin-releasing factor receptor 2/Corticotropin-releasing factor-binding protein; test: activators of CRF receptor 2 with binding protein – uHTS hits, confirmation (AID 602473); format: functional; settings: read-out: EC50_Mean
[4] = target: Beta Lactamase (Pseudomonas aeruginosa, UniProt Q932Y6); test: beta-lactamase reporter inhibitor potency, dose response, artefact control for TLR9-MyD88 binding inhibitor project, BLA reporter cells, FRET fluorescence (AID 588341); format: cell-based;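 further: cell based assay in CHO-K1 cells stably expressing beta-lactamase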
[5] = target: Glucose-6-phosphate 1-dehydrogenase (Homo sapiens, UniProt P11413); test: human G6PD enzyme inhibitors, dose response, selectivity assay for P. falciparum G6PD inhibitor project, biochemical, fluorescence (AID 504792); format: functional
[6] = system: CHO; test: cytotoxicity in TLR9-MyD88 CHO cells, dose response, cytotoxicity control for TLR9-MyD88 binding inhibitor project, cell-based, luminescence (AID 588339); format: functional, hamster; settings: Cricetulus griseus;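 further: CHO cells stably coexpressing TLR9 and MyD88 fusions from primary screen; compound exposure lasted 48 hours before viability readout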
[7] = control 3'UTR Renilla luciferase suppression, dose response, counter-screen for Shn3 inhibitor project, cell-based, Clone20-Shn3RL, cherry-picked (AID 624133); format: functional
[8] = target: T2, Heat shock factor protein 1 (Mus musculus, UniProt P38532); test: HSF1 potentiators in luciferase reporter cells, confirmation, cell-based, NIH3T3, luminescence, dose retest (AID 435004); format: functional;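 further: stress induced by proteasome inhibitor MG132 added 30 min after compound; luciferase reporter driven by HSF1 response element in NIH3T3 cells; actives raise luminescence as potentiators of the MG132 stress response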
T2 sequence (P38532 whole entry): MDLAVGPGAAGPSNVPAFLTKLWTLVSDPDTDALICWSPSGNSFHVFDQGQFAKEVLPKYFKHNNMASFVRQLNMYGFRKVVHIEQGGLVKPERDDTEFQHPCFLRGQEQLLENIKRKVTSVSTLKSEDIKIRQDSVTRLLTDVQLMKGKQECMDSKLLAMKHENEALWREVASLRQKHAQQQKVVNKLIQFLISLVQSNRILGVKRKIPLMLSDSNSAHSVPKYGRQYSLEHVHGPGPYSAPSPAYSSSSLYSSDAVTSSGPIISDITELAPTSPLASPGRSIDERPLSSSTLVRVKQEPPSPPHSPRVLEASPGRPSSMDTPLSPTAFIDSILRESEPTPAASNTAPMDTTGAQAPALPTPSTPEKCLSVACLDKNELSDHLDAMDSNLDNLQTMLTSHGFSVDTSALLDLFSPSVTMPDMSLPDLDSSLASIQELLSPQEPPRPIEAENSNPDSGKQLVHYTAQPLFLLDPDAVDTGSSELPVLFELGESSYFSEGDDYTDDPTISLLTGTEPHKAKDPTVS

[9] = HepG2 cell cytotoxicity, dose response, cytotoxicity control for Shn3 inhibitor project, CellTiter-Glo, cherry-picked (AID 624134); format: functional, cell-based
[10] = cytotoxicity in HEK-293T cells, dose response, cytotoxicity control for TCR NF-kB inhibitor project, luminescence, T-cell screen hits (AID 489026); format: functional, cell-based;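 further: cells exposed to compound about 14 hours before the viability readout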
[11] = Luminescence Cell-Based Dose Retest to Confirm Inhibitors of Cancer Stem Cells. [Related pubchem assays (depositor defined):AID2717, AID2721]; format: functional; settings: Homo sapiens
[12] = Shn3 3'UTR reporter inhibitors, dose response, cell-based, Clone20 osteoblasts, firefly luciferase, cherry-picked (AID 624132); format: functional;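 further: firefly luciferase luminescence from reporter carrying the Shn3 3'UTR in osteoblasts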
[13] = target: Cytochrome P450 2D6 (Homo sapiens, UniProt P10635);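 further: CYP2D6 member of a cytochrome P450 panel assay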
[14] = target: Cytochrome P450 2C9 (Homo sapiens, UniProt P11712)
[15] = cells
[16] = target: T3, Oxysterols receptor LXR-beta (Homo sapiens, UniProt P55055); format: functional, cell-based;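 further: Cell-based luminescence dose-response assay of agonist activity at LXR, run as a confirmatory counterscreen to a daf-12 agonist screen; HEK293 cells with Gal4-LXR fusion and GAL4-driven luciferase reporter; agonist potency from rising luciferase signal of a Gal4-LXR reporter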
T3 sequence (P55055 whole entry): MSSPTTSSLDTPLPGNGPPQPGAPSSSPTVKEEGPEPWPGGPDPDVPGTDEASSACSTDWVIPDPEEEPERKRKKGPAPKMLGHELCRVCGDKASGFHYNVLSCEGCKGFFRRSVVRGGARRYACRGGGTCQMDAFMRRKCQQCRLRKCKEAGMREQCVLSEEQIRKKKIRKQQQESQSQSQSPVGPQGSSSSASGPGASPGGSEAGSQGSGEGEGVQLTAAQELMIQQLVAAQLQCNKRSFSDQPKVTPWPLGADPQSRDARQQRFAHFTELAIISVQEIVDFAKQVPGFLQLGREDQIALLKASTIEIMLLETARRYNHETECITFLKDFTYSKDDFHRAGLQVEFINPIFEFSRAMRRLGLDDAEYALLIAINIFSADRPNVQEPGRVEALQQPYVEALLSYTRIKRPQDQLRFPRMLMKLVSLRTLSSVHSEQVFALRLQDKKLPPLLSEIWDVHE

[17] = target: T4, Nuclear receptor subfamily 0 group B member 1 (Homo sapiens, UniProt P51843); format: functional, cell-based;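 further: HEK293T cells transfected with SF-1 and DAX-1 plus StAR promoter luciferase reporter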
T4 sequence (P51843 whole entry): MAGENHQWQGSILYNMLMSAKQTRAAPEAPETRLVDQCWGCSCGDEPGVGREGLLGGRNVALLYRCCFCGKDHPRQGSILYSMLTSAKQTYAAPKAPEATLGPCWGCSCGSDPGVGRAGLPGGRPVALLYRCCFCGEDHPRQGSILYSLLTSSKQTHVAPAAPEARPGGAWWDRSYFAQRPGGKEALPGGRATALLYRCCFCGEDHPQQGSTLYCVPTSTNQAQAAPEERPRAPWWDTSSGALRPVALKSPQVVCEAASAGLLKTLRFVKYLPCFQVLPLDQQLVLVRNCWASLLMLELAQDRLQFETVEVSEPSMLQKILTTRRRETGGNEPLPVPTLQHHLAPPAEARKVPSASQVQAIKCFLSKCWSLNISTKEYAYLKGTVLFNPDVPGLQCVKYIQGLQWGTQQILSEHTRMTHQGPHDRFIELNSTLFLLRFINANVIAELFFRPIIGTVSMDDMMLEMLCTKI

[18] = cells; format: functional, cell-based
[19] = target: Cytochrome P450 2C19 (Homo sapiens, UniProt P33261); test: Cytochrome panel assay with activity outcomes. Panel member name: p450-cyp2c19 Compounds with AC50 equal or less than 10 uM are considered active; format: functional
[20] = target: T5, Cytochrome P450 1A2 (Homo sapiens, UniProt P05177);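 further: PubChem cytochrome P450 panel assay, CYP1A2 panel member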
T5 sequence (P05177 whole entry): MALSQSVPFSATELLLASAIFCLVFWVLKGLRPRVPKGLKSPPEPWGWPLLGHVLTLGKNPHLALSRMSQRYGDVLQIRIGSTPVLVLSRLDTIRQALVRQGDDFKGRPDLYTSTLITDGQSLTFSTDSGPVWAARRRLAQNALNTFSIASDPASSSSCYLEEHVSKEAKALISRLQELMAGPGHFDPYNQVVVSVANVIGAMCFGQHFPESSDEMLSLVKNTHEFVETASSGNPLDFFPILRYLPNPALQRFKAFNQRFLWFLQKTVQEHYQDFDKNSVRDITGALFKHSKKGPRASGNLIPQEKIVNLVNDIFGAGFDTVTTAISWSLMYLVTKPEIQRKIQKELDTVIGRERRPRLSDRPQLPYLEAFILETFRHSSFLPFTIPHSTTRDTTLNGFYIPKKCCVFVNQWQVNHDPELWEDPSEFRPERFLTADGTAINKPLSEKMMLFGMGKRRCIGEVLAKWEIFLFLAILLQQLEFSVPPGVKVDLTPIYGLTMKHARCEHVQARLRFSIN

[21] = inhibitors of Vif binding to APOBEC3G peptide, primary screen, biochemical, TR-FRET, GST-Vif 1-94, biotin-A3G peptide, dose response retest (AID 1117319); format: functional;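 further: TR-FRET signal of purified GST-Vif binding a biotinylated A3G peptide; inhibitors lower the FRET signal by blocking Vif and A3G binding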
[22] = inhibitors of PGC1a acetylation in cells, dose response, cell-based, cherry-picked samples (AID 720514); format: functional;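 further: potency may reflect raised or lowered acetylation signal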

Sequence of Cytochrome P450 2C9 (P11712 whole entry): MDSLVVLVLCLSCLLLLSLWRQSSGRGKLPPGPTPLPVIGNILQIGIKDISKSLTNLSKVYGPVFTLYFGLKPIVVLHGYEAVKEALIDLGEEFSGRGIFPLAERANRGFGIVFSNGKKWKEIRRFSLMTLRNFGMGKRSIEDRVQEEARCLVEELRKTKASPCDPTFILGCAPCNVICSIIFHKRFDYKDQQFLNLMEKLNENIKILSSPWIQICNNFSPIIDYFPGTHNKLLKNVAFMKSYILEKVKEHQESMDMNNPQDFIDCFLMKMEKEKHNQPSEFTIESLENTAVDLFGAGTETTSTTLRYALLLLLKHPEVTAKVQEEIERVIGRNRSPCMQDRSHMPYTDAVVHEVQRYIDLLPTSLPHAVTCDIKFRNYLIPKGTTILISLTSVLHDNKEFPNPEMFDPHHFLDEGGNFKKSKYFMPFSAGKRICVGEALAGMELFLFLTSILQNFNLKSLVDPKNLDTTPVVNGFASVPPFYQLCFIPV
Sequence of Glucose-6-phosphate 1-dehydrogenase (P11413 whole entry, the tested form may be a part): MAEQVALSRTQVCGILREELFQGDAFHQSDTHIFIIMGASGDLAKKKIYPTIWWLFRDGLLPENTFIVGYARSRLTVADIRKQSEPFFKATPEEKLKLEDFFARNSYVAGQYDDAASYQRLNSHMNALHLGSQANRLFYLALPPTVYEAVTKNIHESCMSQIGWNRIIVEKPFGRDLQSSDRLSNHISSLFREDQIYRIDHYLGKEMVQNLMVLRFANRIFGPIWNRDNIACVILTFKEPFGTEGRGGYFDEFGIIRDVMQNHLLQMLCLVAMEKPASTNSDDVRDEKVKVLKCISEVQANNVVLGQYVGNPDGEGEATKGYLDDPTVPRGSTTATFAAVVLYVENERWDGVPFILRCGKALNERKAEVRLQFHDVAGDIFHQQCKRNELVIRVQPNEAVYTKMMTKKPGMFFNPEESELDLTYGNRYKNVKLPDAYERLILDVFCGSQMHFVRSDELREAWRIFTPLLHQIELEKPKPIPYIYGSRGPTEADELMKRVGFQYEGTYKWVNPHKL
Sequence of Cytochrome P450 2D6 (P10635 whole entry): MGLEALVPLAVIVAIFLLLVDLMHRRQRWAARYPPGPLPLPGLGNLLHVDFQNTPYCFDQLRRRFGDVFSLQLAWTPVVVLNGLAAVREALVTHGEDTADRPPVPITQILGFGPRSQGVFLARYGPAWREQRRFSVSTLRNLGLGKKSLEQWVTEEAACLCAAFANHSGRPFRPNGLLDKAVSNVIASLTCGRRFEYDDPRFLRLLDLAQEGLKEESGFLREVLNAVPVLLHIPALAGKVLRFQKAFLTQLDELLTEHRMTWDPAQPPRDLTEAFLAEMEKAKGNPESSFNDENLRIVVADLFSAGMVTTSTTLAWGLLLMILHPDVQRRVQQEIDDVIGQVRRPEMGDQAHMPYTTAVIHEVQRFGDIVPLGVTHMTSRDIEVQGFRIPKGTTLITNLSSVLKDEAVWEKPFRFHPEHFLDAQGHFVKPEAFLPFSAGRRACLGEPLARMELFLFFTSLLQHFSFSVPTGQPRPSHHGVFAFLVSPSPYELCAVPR
Sequence of Beta Lactamase (Q932Y6 whole entry): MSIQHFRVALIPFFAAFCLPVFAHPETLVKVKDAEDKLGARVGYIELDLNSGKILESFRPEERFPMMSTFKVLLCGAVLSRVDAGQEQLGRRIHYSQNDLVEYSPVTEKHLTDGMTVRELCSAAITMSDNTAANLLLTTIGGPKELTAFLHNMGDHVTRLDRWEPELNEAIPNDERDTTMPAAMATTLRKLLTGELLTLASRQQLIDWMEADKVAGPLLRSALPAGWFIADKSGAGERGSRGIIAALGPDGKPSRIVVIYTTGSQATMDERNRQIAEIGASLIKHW
Sequence of Cytochrome P450 2C19 (P33261 whole entry): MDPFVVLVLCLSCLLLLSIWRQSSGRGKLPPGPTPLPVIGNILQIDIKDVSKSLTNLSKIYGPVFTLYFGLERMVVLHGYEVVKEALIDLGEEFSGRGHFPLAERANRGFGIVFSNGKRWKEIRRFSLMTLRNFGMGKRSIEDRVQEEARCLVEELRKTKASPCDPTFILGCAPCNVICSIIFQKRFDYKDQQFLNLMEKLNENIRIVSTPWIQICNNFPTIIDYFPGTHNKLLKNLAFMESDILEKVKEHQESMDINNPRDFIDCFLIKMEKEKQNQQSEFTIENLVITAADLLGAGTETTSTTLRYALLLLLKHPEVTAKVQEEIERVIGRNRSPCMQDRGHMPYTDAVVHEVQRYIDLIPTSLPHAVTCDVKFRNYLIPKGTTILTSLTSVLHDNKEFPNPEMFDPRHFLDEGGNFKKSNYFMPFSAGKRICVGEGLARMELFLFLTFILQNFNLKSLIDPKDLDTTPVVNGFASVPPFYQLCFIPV

Compound: COC(=O)c1cc(OC)c(OC)cc1NC(=O)c1ccco1
IC50 [1]: > 20 µM (inactive) | IC50 [2]: 38.9 µM (active) | EC50 [3]: > 53 µM (inactive)

Compound: O=C1C=CC(=O)N1c1ccc2c(c1)C(NC(=O)C(F)(F)F)c1ccccc1-2 (stereo unspecified)
IC50 [4]: 14.5 µM (inactive) | IC50 [5]: > 80 µM (inactive) | IC50 [6]: 1.91 µM (active)

Compound: NC(=O)CC(NC(=O)c1ccc(Br)cc1)c1ccc(N2CCCCCC2)c([N+](=O)[O-])c1 (stereo unspecified)
AC50 [7]: 26.6 µM (active) | EC50 [8]: 38.3 µM (active) | AC50 [9]: > 70 µM (inactive) | IC50 [10]: > 80 µM (inactive) | AC50 [11]: 15.4 µM (active) | AC50 [12]: 7.66 µM (active)

Compound: Cc1[nH]n(C(N)=S)c(=O)c1/N=N/c1ccc(Br)cc1
EC50 [15]: > 67.5 µM (inactive) | EC50 [16]: > 67.5 µM (inactive)

Compound: C/C(=N/NC(=O)c1ccc2c(c1)OCO2)c1ccc(NC(=O)c2ccc(F)cc2)cc1
IC50 [17]: > 67.5 µM (inactive) | IC50 [18]: > 67.5 µM (inactive)

Compound: O=C(c1sc2ccccc2c1Cl)N1CCN(c2ccc(F)cc2)CC1
AC50 [19]: 89.1 nM (inconclusive) | AC50 [20]: 2.82 µM (inconclusive) | AC50 [14]: inconclusive

Compound: COc1ccccc1C1c2c(C)nn(-c3ccccc3)c2NC(=O)C1NC(=O)c1ccccc1 (stereo unspecified)
AC50 [22]: 23.5 µM (active)

Continued, values first:

IC50 [1]: > 20 µM (inactive) | IC50 [2]: 7.94 µM (active) | EC50 [3]: 15.4 µM (active)
Compound: c1ccc2c(c1)OCCOCCOCCOCCOc1ccccc1OCCOCCOCCO2

AC50 [13]: 31.6 µM (inconclusive) | AC50 [14]: inconclusive
Compound: Cc1noc(C)c1-c1nccc(NC2CC2)n1

IC50 [1]: > 20 µM (inactive) | IC50 [2]: 16.1 µM (active) | EC50 [3]: > 53 µM (inactive)
Compound: COc1ccc(/C=C/C(=O)Nc2c(C)nn(C)c2C)cc1COc1ccc(Br)cc1

IC50 [21]: > 100 µM (active)
Compound: CCN1C(=O)CS/C1=C(\C#N)S(=O)(=O)c1ccccc1

AC50 [14]: inconclusive
Compound: CCCCNC(=O)Cc1coc2ccc3ccccc3c12

IC50 [21]: > 100 µM (active)
Compound: CCOC(=O)CSc1nnc(-c2ccccc2NC(=O)c2ccccc2)o1
